# Biological target: T1, human PDHK2 (hPDHK2) (Homo sapiens, UniProt Q15119)
# T1 construct: made in house; host or cells: Escherichia coli BL21(DE3), pET-17b vector
# Assay: Inhibitory action of PDHK2 activity (residual PDH activity, NADH absorbance at 340 nm)
# Type: biochemical
# Conditions: PDH/hPDHK2 complex, PDHK reaction 45 min at room temperature
# Protocol: In the case of human PDHK2 (hPDHK2, NCBI Reference Database Accession number NM_002611.4), modified hPDHK2 cDNA wherein FLAG-Tag sequence was added to the N terminus of hPDHK2 cDNA clone (pReceiver-M01/PDK2-GeneCopoeia) as the base was prepared by polymerase chain reaction (PCR) and ligated to the NdeI/EcoRI site of pET-17b vector (Merck KGaA, Catalog Number 69663-3). The recombinant construct was transformed into Escherichia coli DH5α. The recombinant clones were identified, and plasmid DNA was isolated and subjected to the DNA sequence analysis. One clone which had the expected nucleic acid sequence was selected for expression work.
# For expression of hPDHK2 activity, Escherichia coli strain BL21(DE3) cells (Merck KGaA, Catalog Number 69450-4) were transformed with the pET17b vector containing modified hPDHK2 cDNA. The Escherichia coli were grown to an optical density 0.6 ([…]) at 30° C. Protein expression was induced by the addition of 500 μmol/L isopropyl-β-thiogalactopyranoside. The Escherichia coli were cultured at 20° C. for 17-18 hr and harvested by centrifugation. The harvested Escherichia coli was resuspended in a suspension buffer (20 mmol/L HEPES-NaOH, 500 mmol/L sodium chloride, 1% ethylene glycol, 0.1% Pluronic (registered trademark) F-68 (pH 8.0), cOmplete, EDTA-free (Roche) (pH 8.0)), and disrupted by a microfluidizer M-110H (MIZUHO INDUSTRIAL CO., LTD.). The precipitate was removed by centrifugation and the supernatant was added to DDDDK-tagged Protein PURIFICATION GEL (MEDICAL & BIOLOGICAL LABORATORIES CO., LTD., Code No. 3329). DDDDK-tagged Protein PURIFICATION GEL was washed with a washing buffer (20 mmol/L HEPES-NaOH, 500 mmol/L sodium chloride, 1% ethylene glycol, 0.1% Pluronic F-68 (pH 8.0)) and the bound protein was eluted with elution buffer 1 (20 mmol/L HEPES-NaOH, 100 μg/mL peptide (amino acid sequence DYKDDDDK) (SEQ ID NO: 1), 500 mmol/L sodium chloride, 1% ethylene glycol, 0.1% Pluronic F-68 (pH 8.0)). The eluted fractions containing FLAG-Tagged protein were pooled, concentrated by an ultrafiltration method, added to a gel filtration column (HiLoad 26/60 Superdex 200 (GE Healthcare Life Sciences, Code No. 17-1070-01)), and eluted with elution buffer 2 (20 mmol/L HEPES-NaOH, 150 mmol/L sodium chloride, 0.5 mmol/L ethylenediaminetetraacetic acid (EDTA), 1% ethylene glycol, 0.1% Pluronic F-68 (pH 8.0)). The eluted fractions were pooled and preserved at −80° C.
# PDH (porcine heart PDH complex, Sigma P7032) and 0.5 μg/mL hPDHK2 were mixed in an assay buffer (50 mmol/L 3-morpholinopropanesulfonic acid (pH 7.0), 20 mmol/L dipotassium hydrogen phosphate, 60 mmol/L potassium chloride, 2 mmol/L magnesium chloride, 0.4 mmol/L EDTA, 0.2% poloxamer, 2 mmol/L dithiothreitol) so that the final concentration of PDH was 0.025 U/mL, and the mixture was incubated at 4° C. overnight to obtain a PDH/hPDHK2 complex solution.
# PDH was mixed with the assay buffer so that the final concentration was 0.025 U/mL, and the mixture was incubated at 4° C. overnight to prepare a PDH solution.
# The test compounds were diluted with DMSO. To measure an inhibitory action of the test compound on the PDHK activity in the PDH/hPDHK2 complex solution, PDH/hPDHK2 complex solution (20 μL), test compound (1.5 μL) and 1.06 μmol/L ATP (diluted with assay buffer) (8.5 μL) were added to a 384 well microplate (Greiner Bio-One 781801) and PDHK reaction was performed at room temperature for 45 min (test compound well). DMSO (1.5 μL) was added to control wells instead of test compound. In addition, DMSO (1.5 μL) was added to blank wells instead of the test compound, and PDH solution was added instead of the PDH/hPDHK2 complex solution. To measure an inhibitory action of the test compound on the PDHK activity inherent in the PDH solution, a test compound was added and the PDH solution instead of the PDH/hPDHK2 complex solution was added to a blank+test compound well. […]
row,SMILES,IC50 [nM]
1,C[C@H]1Cc2cc(C#N)ccc2-c2cnc([C@@](C)(O)C(F)(F)F)n21 (racemic) [Example 5],21
2,C[C@H]1Cn2nc(OCC3CCN(C(=O)c4ccc(F)cc4)CC3)cc2-c2cnc([C@@](C)(O)C(F)(F)F)n21 [Example 69],15
3,C[C@H]1Cn2nc(OCCOC(F)F)cc2-c2cnc([C@@](C)(O)C(F)(F)F)n21 [Example 96],13
4,C[C@H]1Cn2c(nnc2C2CC2c2ccccc2)-c2cnc([C@@](C)(O)C(F)(F)F)n21 (stereo partly drawn) [Example 97],6.2
5,C[C@H]1Cn2nc(Oc3ccnc(C(F)(F)F)c3)cc2-c2cnc([C@@](C)(O)C(F)(F)F)n21 [Example 86],16
6,C[C@H]1Cn2c(cnc2C(F)(F)F)-c2cnc([C@@](C)(O)C(F)(F)F)n21 [Example 7],7.5
7,C[C@H]1Cn2c(nnc2C2(c3ccc(Cl)cc3)COC2)-c2cnc([C@@](C)(O)C(F)(F)F)n21 [Example 89],8.8
8,"C[C@H]1Cn2nc(OC(F)F)cc2-c2cnc([C@@](C)(O)C(F)(F)F)n21 [Example 23, (R)-2-((S)-9-(difluoromethoxy)-5-methyl-5,6-dihydroimidazo[1,5-a]pyrazolo[5,1-c]pyrazin-3-yl)-1,1,1-trifluoropropan-2-ol]",13
9,C[C@H]1Cn2nc(OC3CN(C(=O)c4ccc(F)cc4)C3)cc2-c2cnc([C@@](C)(O)C(F)(F)F)n21 [Example 58],8.8
10,C[C@H]1Cn2c(-c3ccc(C(F)(F)F)cc3)nnc2-c2cnc([C@@](C)(O)C(F)(F)F)n21 [Example 54],9.3
11,"C[C@H]1Cn2nc(OCC(C)(C)O)cc2-c2cnc([C@@](C)(O)C(F)(F)F)n21 [Example 52, (R)-1,1,1-trifluoro-2-((S)-9-(2-hydroxy-2-methylpropoxy)-5-methyl-5,6-dihydroimidazo[1,5-a]pyrazolo[5,1-c]pyrazin-3-yl)propan-2-ol]",21
12,C[C@H]1Cn2ncc(Cl)c2-c2cnc([C@@](C)(O)C(F)(F)F)n21 [Example 11],34
13,CC(C)C(F)(F)c1nnc2n1C[C@H](C)n1c-2cnc1[C@@](C)(O)C(F)(F)F [Example 60],6.8
14,C[C@H]1Cn2nc(C#N)cc2-c2cnc([C@@](C)(O)C(F)(F)F)n21 [Example 42],24
15,COc1ccc(COCc2cc3n(n2)C[C@H](C)n2c-3cnc2[C@@](C)(O)C(F)(F)F)cc1 [Example 33],29
16,Cc1cnn2c1-c1cnc([C@@](C)(O)C(F)(F)F)n1[C@@H](C)C2 [Example 31],81
17,C[C@H]1Cn2nc(Oc3cc(C4CC4)ncn3)cc2-c2cnc([C@@](C)(O)C(F)(F)F)n21 [Example 72],12
18,Cc1cc2n(n1)C[C@H](C)n1c-2cnc1[C@@](C)(O)C(F)(F)F [Example 9],13
19,C[C@H]1Cn2nc(OCc3ccc(C#N)cc3)cc2-c2cnc([C@@](C)(O)C(F)(F)F)n21 [Example 49],8.8
20,C[C@H]1Cn2c(nnc2C(F)(F)Oc2ccc(F)cc2)-c2cnc([C@@](C)(O)C(F)(F)F)n21 [Example 62],6.3
21,C[C@H]1Cn2nc(C(C)(C)O)cc2-c2cnc([C@@](C)(O)C(F)(F)F)n21 [Example 20],22
22,CC(=O)N1CCC(COc2cc3n(n2)C[C@H](C)n2c-3cnc2[C@@](C)(O)C(F)(F)F)CC1 [Example 67],19
23,COC(c1nnc2n1C[C@H](C)n1c-2cnc1[C@@](C)(O)C(F)(F)F)(C(F)(F)F)C(F)(F)F [Example 93],21
24,C[C@H]1Cn2nc(OC(C)(C)C)cc2-c2cnc([C@@](C)(O)C(F)(F)F)n21 [Example 55],16
25,"C[C@H]1Cc2c(C(F)(F)F)nn(C)c2-c2cnc([C@@](C)(O)C(F)(F)F)n21 (racemic) [Example 24, 2-(1,5-dimethyl-3-(trifluoromethyl)-4,5-dihydro-1H-imidazo[1,5-a]pyrazolo[3,4-c]pyridin-7-yl)-1,1,1-trifluoropropan-2-ol]",> 100
26,C[C@H]1Cn2c(cc(=O)n2C(F)F)-c2cnc([C@@](C)(O)C(F)(F)F)n21 [Example 103],26

# Same assay, conditions: at 0.1 μM, given when IC50 value could not be calculated; read-out: hPDHK2 inhibitory rate
row,SMILES,inhibition at 0.1 µM [%]
1,"C[C@H]1Cc2c(C(F)(F)F)nn(C)c2-c2cnc([C@@](C)(O)C(F)(F)F)n21 (racemic) [Example 24, 2-(1,5-dimethyl-3-(trifluoromethyl)-4,5-dihydro-1H-imidazo[1,5-a]pyrazolo[3,4-c]pyridin-7-yl)-1,1,1-trifluoropropan-2-ol]",31

# — patent publication US20230025880A1, “FUSED TRICYCLIC COMPOUND AND MEDICINAL USE THEREOF” (JAPAN TOBACCO INC., priority 2020, published 2023)
